Reference: patent US20160221974A1, “SODIUM CHANNEL MODULATORS FOR THE TREATMENT OF PAIN AND DIABETES” (CHROMOCELL CORPORATION, priority 2013, published 2016)

Target: T1, NaV1.7 (Homo sapiens, UniProt Q15858)
T1 construct: expressed in transfected cells
Assay: Patchliner Electrophysiological In-Vitro Assay (NaV1.7)
Assay type: cell-based
Conditions: Patchliner patch clamp, HEK293, holding at V1/2
Method in brief: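 Automated whole-cell patch clamp at room temperature on HEK293 cells stably expressing hNav1.7 with β1 and β2 subunits. Inactivated-state Ki: cells held at their own V1/2, stepped to −120 mV for 5–10 ms, then to Vmax for 10–20 ms, repeated every 10 s; dose-dependent inhibition analysed.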

T1 sequence (Q15858 whole entry): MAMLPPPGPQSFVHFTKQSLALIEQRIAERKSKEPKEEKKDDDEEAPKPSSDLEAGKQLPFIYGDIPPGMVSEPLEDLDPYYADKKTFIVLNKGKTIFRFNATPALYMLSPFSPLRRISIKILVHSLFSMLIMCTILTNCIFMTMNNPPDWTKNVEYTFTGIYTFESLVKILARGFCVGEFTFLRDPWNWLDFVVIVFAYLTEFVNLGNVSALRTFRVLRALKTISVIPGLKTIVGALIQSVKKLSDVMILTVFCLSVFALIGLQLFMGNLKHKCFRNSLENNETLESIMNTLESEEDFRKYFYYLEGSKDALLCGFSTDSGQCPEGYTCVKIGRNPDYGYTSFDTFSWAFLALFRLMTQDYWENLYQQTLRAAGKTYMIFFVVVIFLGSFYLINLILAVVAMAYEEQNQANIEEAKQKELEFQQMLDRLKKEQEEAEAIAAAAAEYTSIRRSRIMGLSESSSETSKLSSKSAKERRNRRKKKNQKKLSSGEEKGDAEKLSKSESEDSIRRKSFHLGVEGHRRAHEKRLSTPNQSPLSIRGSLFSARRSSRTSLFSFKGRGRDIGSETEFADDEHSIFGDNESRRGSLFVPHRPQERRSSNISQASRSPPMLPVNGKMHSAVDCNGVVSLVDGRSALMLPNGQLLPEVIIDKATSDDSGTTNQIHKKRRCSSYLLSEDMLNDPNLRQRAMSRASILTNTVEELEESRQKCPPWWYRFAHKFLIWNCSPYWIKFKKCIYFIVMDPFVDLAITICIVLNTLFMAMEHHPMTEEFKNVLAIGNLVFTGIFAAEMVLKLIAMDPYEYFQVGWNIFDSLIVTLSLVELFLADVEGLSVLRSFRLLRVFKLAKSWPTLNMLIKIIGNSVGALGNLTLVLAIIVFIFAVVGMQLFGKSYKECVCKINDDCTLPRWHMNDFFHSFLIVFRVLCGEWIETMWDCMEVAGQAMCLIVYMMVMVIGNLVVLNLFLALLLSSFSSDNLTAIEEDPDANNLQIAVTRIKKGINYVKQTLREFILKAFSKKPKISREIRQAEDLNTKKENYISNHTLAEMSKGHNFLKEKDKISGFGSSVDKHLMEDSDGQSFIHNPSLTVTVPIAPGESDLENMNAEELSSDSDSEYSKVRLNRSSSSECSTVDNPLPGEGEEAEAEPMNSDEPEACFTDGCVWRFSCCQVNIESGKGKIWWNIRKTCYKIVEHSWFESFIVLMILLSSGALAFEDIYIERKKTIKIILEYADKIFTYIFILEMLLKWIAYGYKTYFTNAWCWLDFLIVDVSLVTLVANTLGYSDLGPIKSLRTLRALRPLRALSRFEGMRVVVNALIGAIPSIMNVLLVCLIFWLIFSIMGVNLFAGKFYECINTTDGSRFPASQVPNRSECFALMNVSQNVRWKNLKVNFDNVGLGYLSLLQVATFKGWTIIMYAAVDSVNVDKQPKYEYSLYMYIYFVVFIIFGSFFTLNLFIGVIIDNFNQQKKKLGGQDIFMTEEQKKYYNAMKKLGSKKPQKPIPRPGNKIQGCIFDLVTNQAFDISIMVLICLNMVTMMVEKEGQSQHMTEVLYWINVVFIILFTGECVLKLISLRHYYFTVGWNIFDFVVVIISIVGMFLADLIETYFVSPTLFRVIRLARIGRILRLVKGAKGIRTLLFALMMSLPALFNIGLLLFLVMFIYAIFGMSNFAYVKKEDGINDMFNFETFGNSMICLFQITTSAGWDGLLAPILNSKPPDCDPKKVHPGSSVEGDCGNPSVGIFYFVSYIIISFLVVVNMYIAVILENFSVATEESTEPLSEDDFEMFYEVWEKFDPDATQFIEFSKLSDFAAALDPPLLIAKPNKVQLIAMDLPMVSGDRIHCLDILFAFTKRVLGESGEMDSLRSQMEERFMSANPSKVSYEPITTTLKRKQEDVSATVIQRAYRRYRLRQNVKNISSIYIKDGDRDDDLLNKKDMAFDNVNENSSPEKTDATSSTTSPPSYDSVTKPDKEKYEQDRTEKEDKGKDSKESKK
T1 sequence (Q07699 19-218 partner): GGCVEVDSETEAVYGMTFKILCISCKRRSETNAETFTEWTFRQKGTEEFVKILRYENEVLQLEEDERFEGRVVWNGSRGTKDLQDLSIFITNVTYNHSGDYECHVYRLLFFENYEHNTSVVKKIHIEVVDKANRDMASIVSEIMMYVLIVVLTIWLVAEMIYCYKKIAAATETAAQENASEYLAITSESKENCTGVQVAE
T1 sequence (O60939 30-215 partner): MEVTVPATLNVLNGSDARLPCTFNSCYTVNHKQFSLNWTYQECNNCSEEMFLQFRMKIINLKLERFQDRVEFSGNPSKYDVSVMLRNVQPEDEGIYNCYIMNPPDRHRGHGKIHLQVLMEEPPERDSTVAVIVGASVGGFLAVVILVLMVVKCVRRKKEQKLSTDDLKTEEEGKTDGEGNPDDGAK

NC(=O)CNCCCc1cc(Cl)ccc1Oc1cc(F)c(S(=O)(=O)Nc2cscn2)cc1Cl [Compound 49, 2-((3-(5-chloro-2-(2-chloro-5-fluoro-4-(N-(thiazol-4-yl)sulfamoyl)phenoxy)phenyl)propyl)amino)acetamide]
IC50: < 100 nM
